In this test the target is T1, Recombinant human PAD2 (residues 1-665) (Homo sapiens, UniProt Q9Y2J8).
T1 construct: Recombinant human PAD2 (residues 1-665) was expressed in baculovirus-infected Sf9 insect cells; 6His-FLAG (N); made in house; host or cells: baculovirus-infected Sf9 insect cells
Briefly: PAD2 enzyme assay (FLINT NH3 release, BAEE substrate). The test is classed as biochemical. The conditions noted are these: PAD2 enzyme assay above or similar assays; to assess selectivity for PAD4 over PAD2; read-out: mean pIC50 (converted). The method, then: Activity of the final product was determined using a FLINT NH3 release assay.
8 μl of PAD2 enzyme diluted to an assay concentration of 30 nM in assay buffer (100 mM HEPES, 50 mM NaCl, 2 mM DTT, 7.5% glycerol and 1.5 mM CHAPS pH 8), and added to wells containing 0.1 μl of various concentrations of compound or DMSO vehicle (0.8% final) in a Greiner high volume 384 well black plate. […] The reaction was stopped after 90 mins with the addition of […] stop/detection buffer containing 50 mM EDTA, 2.6 mM phthalaldehyde and 2.6 mM DTT.

T1 sequence (Q9Y2J8 whole entry, the tested form may be a part): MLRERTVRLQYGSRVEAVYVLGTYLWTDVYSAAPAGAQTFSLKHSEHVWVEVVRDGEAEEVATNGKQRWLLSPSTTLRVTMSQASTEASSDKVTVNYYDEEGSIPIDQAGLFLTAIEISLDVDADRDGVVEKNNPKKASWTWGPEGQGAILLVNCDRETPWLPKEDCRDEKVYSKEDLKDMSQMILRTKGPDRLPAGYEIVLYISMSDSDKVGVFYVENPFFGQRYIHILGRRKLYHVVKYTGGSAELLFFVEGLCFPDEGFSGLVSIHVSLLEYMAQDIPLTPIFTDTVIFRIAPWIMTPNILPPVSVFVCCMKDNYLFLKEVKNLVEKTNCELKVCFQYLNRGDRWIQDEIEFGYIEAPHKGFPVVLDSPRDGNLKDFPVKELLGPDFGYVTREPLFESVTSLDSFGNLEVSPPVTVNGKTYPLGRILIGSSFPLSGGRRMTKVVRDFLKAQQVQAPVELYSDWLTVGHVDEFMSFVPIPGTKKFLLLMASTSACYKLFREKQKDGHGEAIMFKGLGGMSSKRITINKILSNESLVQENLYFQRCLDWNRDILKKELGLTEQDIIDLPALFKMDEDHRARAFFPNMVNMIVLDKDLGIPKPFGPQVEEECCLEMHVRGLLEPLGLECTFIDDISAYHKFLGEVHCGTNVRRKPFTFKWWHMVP

As to `CCn1c(-c2nc3cc(C(=O)N4C[C@@H](N)CC[C@H]4C)ccc3n2C)cc2ccccc21` (single isomer, unassigned) [Example 54, cis-(5-Amino-2-methylpiperidin-1-yl)(2-(1-ethyl-1H-indol-2-yl)-1-methyl-1H-benzo[d]imidazol-5-yl)methanone], the IC50 is over 79.4 µM. As to `Cn1c(-c2cc3ccccc3n2CCO)nc2cc(C(=O)N3CCC[C@@H](N)C3)ccc21` [Example 29, 2-[2-(5-{[(3R)-3-Amino-1-piperidinyl]carbonyl}-1-methyl-1H-benzimidazol-2-yl)-1H-indol-1-yl]ethanol], the IC50 was over 79.4 µM. Consider `Cn1cc(Cn2c(-c3nc4cc(C(=O)N5CCC[C@@H](N)C5)ccc4n3C)cc3ccccc32)cn1` [Example 20a, (3R)-1-[(1-methyl-2-{1-[(1-methyl-1H-pyrazol-4-yl)methyl]-1H-indol-2-yl}-1H-benzimidazol-5-yl)carbonyl]-3-piperidinamine], for which the IC50 was at least 10 µM. Regarding `COc1cc(C(=O)N2CC[C@@H](O)[C@@H](N)C2)cc2nc(-c3cc4ccccc4n3CC(F)(F)F)n(C)c12` [Example 58a, ((3S,4R)-3-Amino-4-hydroxypiperidin-1-yl)(7-methoxy-1-methyl-2-(1-(2,2,2-trifluoroethyl)-1H-indol-2-yl)-1H-benzo[d]imidazol-5-yl)methanone], the IC50 is at least 10 µM. For the molecule `Cn1c(-c2cc3ccccc3n2CC2CC2)nc2cc(C(=O)N3CCC[C@@H](N)C3)ccc21` [Example 16, (3R)-1-({2-[1-(Cyclopropylmethyl)-1H-indol-2-yl]-1-methyl-1H-benzimidazol-5-yl}carbonyl)-3-piperidinamine], the IC50 is at least 10 µM. Turning to `CCn1c(-c2nc3cc(C(=O)N4CCC[C@@H](N)C4)cc(OCC#N)c3n2C)cc2ccccc21` [Example 113, (R)-2-((5-(3-Aminopiperidine-1-carbonyl)-2-(1-ethyl-1H-indol-2-yl)-1-methyl-1H-benzo[d]imidazol-7-yl)oxy)acetonitrile], the IC50 is at least 10 µM. As for `CCn1c(-c2nc3cc(C(=O)N4CC[C@H](OC)[C@@H](N)C4)ccc3n2C)cc2ccccc21` (racemic) [Example 51, (+/−)-((trans)-3-Amino-4-methoxypiperidin-1-yl)(2-(1-ethyl-1H-indol-2-yl)-1-methyl-1H-benzo[d]imidazol-5-yl)methanone], the figure is over 79.4 µM; as for `CCn1c(-c2nc3cc(C(=O)N4CCC[C@@H](N)C4)cc(OC(F)(F)F)c3n2C)cc2ccccc21` [Example 34, (R)-(3-Aminopiperidin-1-yl)(2-(1-ethyl-1H-indol-2-yl)-1-methyl-7-(trifluoromethoxy)-1H-benzo[d]imidazol-5-yl)methanone], at least 10 µM; as for `CCn1c(-c2nc3cc(C(=O)N4CCC[C@@H](N)C4)ccc3n2CCN)cc2ccccc21` [Example 48, (R)-(1-(2-Aminoethyl)-2-(1-ethyl-1H-indol-2-yl)-1H-benzo[d]imidazol-5-yl)(3-aminopiperidin-1-yl)methanone], at least 10 µM. `Cn1c(-c2cc3ccccc3[nH]2)nc2cc(C(=O)N3CCC[C@@H](N)C3)ccc21` [Example 18, (3R)-1-{[2-(1H-Indol-2-yl)-1-methyl-1H-benzimidazol-5-yl]carbonyl}-3-piperidinamine]: the IC50 is at least 10 µM. `CCn1c(-c2nc3cc(C(=O)N4CCC[C@@H](N)C4)cc(OCC(N)=O)c3n2C)cc2ccccc21` [Example 114, (R)-2-((5-(3-Aminopiperidine-1-carbonyl)-2-(1-ethyl-1H-indol-2-yl)-1-methyl-1H-benzo[d]imidazol-7-yl)oxy)acetamide]: the IC50 is over 79.4 µM. On to `CCc1cc(C(=O)N2CCC[C@@H](N)C2)cc2nc(-c3cc4ccccc4n3CC)n(C)c12` [Example 75, (R)-(3-Aminopiperidin-1-yl)(7-ethyl-2-(1-ethyl-1H-indol-2-yl)-1-methyl-1H-benzo[d]imidazol-5-yl)methanone], for which the IC50 was at least 10 µM. As for `CCn1c(-c2nc3cc(C(=O)N4CCC[C@@H](N)C4)cc(NC)c3n2C)cc2ccccc21` [Example 68, (R)-(3-Aminopiperidin-1-yl)(2-(1-ethyl-1H-indol-2-yl)-1-methyl-7-(methylamino)-1H-benzo[d]imidazol-5-yl)methanone], the IC50 is over 79.4 µM. Consider `COCCn1c(-c2nc3cc(C(=O)N4CCC[C@@H](N)C4)ccc3n2C)cc2ccccc21` [Example 22, (3R)-1-[(1-methyl-2-{1-[2-(methyloxy)ethyl]-1H-indol-2-yl}-1H-benzimidazol-5-yl)carbonyl]-3-piperidinamine], for which the IC50 is over 79.4 µM.

Take `CCn1c(-c2nc3cc(C(=O)N4CCC[C@@H](N)C4)cc(N(C)C)c3n2C)cc2ccccc21` [Example 63, (R)-(3-Aminopiperidin-1-yl)(7-(dimethylamino)-2-(1-ethyl-1H-indol-2-yl)-1-methyl-1H-benzo[d]imidazol-5-yl)methanone]: the IC50 was over 79.4 µM. As to `CCOc1ccc2cc(-c3nc4cc(C(=O)N5CCC[C@@H](N)C5)ccc4n3C)n(CC)c2c1` [Example 32, (R)-(3-Aminopiperidin-1-yl)(2-(6-ethoxy-1-ethyl-1H-indol-2-yl)-1-methyl-1H-benzo[d]imidazol-5-yl)methanone], the IC50 is at least 10 µM. As for `CCn1c(-c2nc3cc(C(=S)N4CCC[C@@H](N)C4)ccc3n2C)cc2ccccc21` [Example 135, (R)-(3-Aminopiperidin-1-yl)(2-(1-ethyl-1H-indol-2-yl)-1-methyl-1H-benzo[d]imidazol-5-yl)methanethione], the figure is at least 10 µM; as for `CC(C)Cn1c(-c2nc3cc(C(=O)N4CCC[C@@H](N)C4)ccc3n2C)cc2ccccc21` [Example 19, (3R)-1-({1-Methyl-2-[1-(2-methylpropyl)-1H-indol-2-yl]-1H-benzimidazol-5-yl}carbonyl)-3-piperidinamine], at least 10 µM; as for `CC(C)n1c(-c2nc3cc(C(=O)N4CCC[C@@H](N)C4)ccc3n2C)cc2ccccc21` [Example 12, (3R)-1-({1-Methyl-2-[1-(1-methylethyl)-1H-indol-2-yl]-1H-benzimidazol-5-yl}carbonyl)-3-piperidinamine], at least 10 µM. As for `COc1cc(C(=O)N2CCC[C@@H](N)C2)cc2nc(-c3cc4ccccc4n3CC#N)n(C)c12` [Example 74, (R)-2-(2-(5-(3-Aminopiperidine-1-carbonyl)-7-methoxy-1-methyl-1H-benzo[d]imidazol-2-yl)-1H-indol-1-yl)acetonitrile], the IC50 is at least 10 µM. The figure for `COc1cc(C(=O)N2CCC[C@@H](N)C2)cc2nc(-c3cc4ccccc4n3CC3CCOCC3)n(C)c12` [Example 70, (R)-(3-Aminopiperidin-1-yl)(7-methoxy-1-methyl-2-(1-((tetrahydro-2H-pyran-4-yl)methyl)-1H-indol-2-yl)-1H-benzo[d]imidazol-5-yl)methanone] is over 79.4 µM. For `Cn1c(-c2nc3cc(C(=O)N4CCC[C@@H](N)C4)ccc3n2C)cc2ccccc21` [Example 37, (R)-(3-Aminopiperidin-1-yl)(1-methyl-2-(1-methyl-1H-indol-2-yl)-1H-benzo[d]imidazol-5-yl)methanone], the IC50 was over 79.4 µM. As for `CCn1c(-c2nc3cc(C(=O)N4CCC[C@@H](N)C4)ccc3n2C)cc2cccc(OC)c21` [Example 2, (3R)-1-({2-[1-ethyl-7-(methyloxy)-1H-indol-2-yl]-1-methyl-1H-benzimidazol-5-yl}carbonyl)-3-piperidinamine], the figure is at least 10 µM; as for `CCn1c(-c2nc3cc(C(=O)N4C[C@H](C)C[C@H](N)C4)ccc3n2C)cc2ccccc21` (single isomer, unassigned) [Example 124, cis-(3-Amino-5-methylpiperidin-1-yl)(2-(1-ethyl-1H-indol-2-yl)-1-methyl-1H-benzo[d]imidazol-5-yl)methanone], over 79.4 µM. The figure for `CCn1c(-c2nc3cc(C(=O)N4CCC[C@@H](N)C4)cc(OCCOC)c3n2C)cc2ccccc21` [Example 111, (R)-(3-Aminopiperidin-1-yl)(2-(1-ethyl-1H-indol-2-yl)-7-(2-methoxyethoxy)-1-methyl-1H-benzo[d]imidazol-5-yl)methanone] is at least 10 µM. Regarding `CCn1c(-c2nc3cc(C(=O)N4CC[C@@H](O)[C@@H](N)C4)cc(OC)c3n2C)cc2ccccc21` [Example 67, ((3S,4R)-3-Amino-4-hydroxypiperidin-1-yl)(2-(1-ethyl-1H-indol-2-yl)-7-methoxy-1-methyl-1H-benzo[d]imidazol-5-yl)methanone], the IC50 is over 79.4 µM. For the molecule `CCn1c(-c2nc3cc(C(=O)N4CCC[C@@H](N)C4)ccc3n2C)cc2ccccc21` [Example 1a], the IC50 was at least 10 µM. As for `COc1cc(C(=O)N2CC[C@H](O)[C@H](N)C2)cc2nc(-c3cc4ccccc4n3CC(F)(F)F)n(C)c12` [Example 59, ((3R,4S)-3-Amino-4-hydroxypiperidin-1-yl)(7-methoxy-1-methyl-2-(1-(2,2,2-trifluoroethyl)-1H-indol-2-yl)-1H-benzo[d]imidazol-5-yl)methanone], the IC50 is at least 10 µM. For `CCn1c(-c2nc3cc(C(=O)N4CCC[C@@H](N)C4)cnc3n2C)cc2ccccc21` [Example 96, (R)-(3-Aminopiperidin-1-yl)(2-(1-ethyl-1H-indol-2-yl)-3-methyl-3H-imidazo[4,5-b]pyridin-6-yl)methanone], the IC50 was over 79.4 µM.

As for `CCn1c(-c2nc3cc(C(=O)N4CCC[C@@H](N)C4)ccc3n2CC)cc2ccccc21` [Example 95, (R)-(3-Aminopiperidin-1-yl)(1-ethyl-2-(1-ethyl-1H-indol-2-yl)-1H-benzo[d]imidazol-5-yl)methanone], the IC50 was over 79.4 µM.

The values are drawn from US10407407B2, “Benzoimidazole derivatives as PAD4 inhibitors” (GLAXOSMITHKLINE INTELLECTUAL PROPERTY DEVELOPMENT LIMITED, priority 2015, dated 2019).
